Source: article PMC8667885, “2-Aminobenzoxazole-appended coumarins as potent and selective inhibitors of tumour-associated carbonic anhydrases” (Journal of Enzyme Inhibition and Medicinal Chemistry, 2021)

test system: SW1573 (non-small cell lung); experiment: antiproliferative assay (NCI protocol), SW1573; format: cell-based, human; conditions: Homo sapiens, SW1573; antiproliferative activity
Experimental: (§1) The antiproliferative assays were conducted following the protocol of the US National Cancer Institute (NCI), with minor modifications.
(§2) The coumarin-benzoxazole hybrids were also tested as antiproliferative agents against a panel of six human solid tumour cell lines (Table 2): A549 (non-small cell lung), HBL-100 (breast), HeLa (cervix), SW1573 (non-small cell lung) as examples of drug-sensitive lines, and T-47D (breast) and WiDr (colon) as multidrug-resistant lines. A non-tumour cell line (BJ-hTert, human fibroblasts) was also used for analysing the selectivity. Chemotherapeutic agents 5-fluorouracyl (5-FU) and cisplatin (CDDP) were included in the study as drug references.

Compound	GI50
Cc1cc(=O)oc2cc(OCCCCCNc3nc4cc(-c5ccccc5)ccc4o3)ccc12 [Compound 8i]	60 ± 4 µM
Cc1cc(=O)oc2cc(OCCCCCNc3nc4cc(S(N)(=O)=O)ccc4o3)ccc12 [Compound 8j]	29 ± 8 µM

same assay, conditions: antiproliferative activity

Compound	GI50
[NH2][Pt]([NH2])([Cl])[Cl] [CDDP, cisplatin, reference compound]	2.7 ± 0.4 µM

molecular target: T1, human CA I (Homo sapiens, UniProt P00915); experiment: stopped-flow CO2 hydrase assay, CA I; conditions: not given
T1 sequence (P00915 whole entry): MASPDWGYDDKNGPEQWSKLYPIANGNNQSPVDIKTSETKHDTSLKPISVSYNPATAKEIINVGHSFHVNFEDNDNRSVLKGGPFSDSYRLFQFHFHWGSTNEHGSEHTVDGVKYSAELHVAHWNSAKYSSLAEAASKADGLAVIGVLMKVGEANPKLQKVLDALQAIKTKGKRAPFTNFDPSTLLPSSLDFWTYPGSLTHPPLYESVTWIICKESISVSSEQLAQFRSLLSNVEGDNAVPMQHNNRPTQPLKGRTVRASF

Ki	Compound
> 10 µM	Cc1cc(=O)oc2cc(OCCCCCNc3nc4cc(-c5ccccc5)ccc4o3)ccc12 [Compound 8i]
0.806 µM	Cc1cc(=O)oc2cc(OCCCCCNc3nc4cc(S(N)(=O)=O)ccc4o3)ccc12 [Compound 8j]

test system: BJ-hTert, human fibroblasts; experiment: antiproliferative assay (NCI protocol), non-tumour BJ-hTert; format: cell-based; conditions: BJ-hTert
Experimental: as §1, §2

Compound	activity against the non-tumour cell line (in words)
Cc1cc(=O)oc2cc(OCCCCCNc3nc4cc(-c5ccccc5)ccc4o3)ccc12 [Compound 8i]	moderate antiproliferative agent

same assay, conditions: Fibroblast; non-tumour cell line, human fibroblasts

Compound	GI50
Cc1cc(=O)oc2cc(OCCCCCNc3nc4cc(-c5ccccc5)ccc4o3)ccc12 [Compound 8i]	25 ± 6 µM
Cc1cc(=O)oc2cc(OCCCCCNc3nc4cc(S(N)(=O)=O)ccc4o3)ccc12 [Compound 8j]	> 100 µM

same assay, conditions: non-tumour cell line, human fibroblasts

Compound	GI50
[NH2][Pt]([NH2])([Cl])[Cl] [CDDP, cisplatin, reference compound]	14 ± 2 µM

test system: A549 (non-small cell lung); experiment: antiproliferative assay (NCI protocol), A549; format: cell-based, human; conditions: Homo sapiens, A549; antiproliferative activity
Experimental: as §1, §2

Compound	GI50
Cc1cc(=O)oc2cc(OCCCCCNc3nc4cc(-c5ccccc5)ccc4o3)ccc12 [Compound 8i]	41 ± 20 µM
Cc1cc(=O)oc2cc(OCCCCCNc3nc4cc(S(N)(=O)=O)ccc4o3)ccc12 [Compound 8j]	13 ± 3 µM

same assay, conditions: antiproliferative activity

Compound	GI50
[NH2][Pt]([NH2])([Cl])[Cl] [CDDP, cisplatin, reference compound]	4.9 ± 0.2 µM

molecular target: T2, human CA II (Homo sapiens, UniProt P00918); experiment: stopped-flow CO2 hydrase assay, CA II; conditions: not given

Ki	Compound
> 10 µM	Cc1cc(=O)oc2cc(OCCCCCNc3nc4cc(-c5ccccc5)ccc4o3)ccc12 [Compound 8i]
0.516 µM	Cc1cc(=O)oc2cc(OCCCCCNc3nc4cc(S(N)(=O)=O)ccc4o3)ccc12 [Compound 8j]

molecular target: T2, human CA II; experiment: not given; parameters: made in house; method as in PMID 22077347; conditions: read-out: inhibition of hCAII; cited from earlier work

Compound	Ki
Cc1cc(=O)oc2cc(O)ccc12 [Compound 3a, 4-methylumbelliferone]	> 100 µM

molecular target: human CA XII (Homo sapiens, UniProt O43570); experiment: stopped-flow CO2 hydrase assay, CA XII; conditions: not given
Sequence (O43570 25-354): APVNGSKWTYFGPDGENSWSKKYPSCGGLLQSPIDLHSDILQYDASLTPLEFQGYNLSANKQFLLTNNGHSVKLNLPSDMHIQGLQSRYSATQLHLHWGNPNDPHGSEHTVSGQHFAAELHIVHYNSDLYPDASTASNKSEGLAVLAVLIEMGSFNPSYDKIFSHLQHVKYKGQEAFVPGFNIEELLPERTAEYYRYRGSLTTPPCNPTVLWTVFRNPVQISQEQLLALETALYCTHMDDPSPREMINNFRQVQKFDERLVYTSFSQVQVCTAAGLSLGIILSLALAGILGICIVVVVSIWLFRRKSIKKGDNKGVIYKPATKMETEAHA

Ki	Compound
0.0571 µM	Cc1cc(=O)oc2cc(OCCCCCNc3nc4cc(-c5ccccc5)ccc4o3)ccc12 [Compound 8i]
0.0506 µM	Cc1cc(=O)oc2cc(OCCCCCNc3nc4cc(S(N)(=O)=O)ccc4o3)ccc12 [Compound 8j]

same assay, conditions: ratio of Ki CA I / CA XII

Selectivity ratio I/XII	Compound
>175.1	Cc1cc(=O)oc2cc(OCCCCCNc3nc4cc(-c5ccccc5)ccc4o3)ccc12 [Compound 8i]
15.9	Cc1cc(=O)oc2cc(OCCCCCNc3nc4cc(S(N)(=O)=O)ccc4o3)ccc12 [Compound 8j]

same assay, conditions: ratio of Ki CA II / CA XII

Selectivity ratio II/XII	Compound
>175.1	Cc1cc(=O)oc2cc(OCCCCCNc3nc4cc(-c5ccccc5)ccc4o3)ccc12 [Compound 8i]
10.2	Cc1cc(=O)oc2cc(OCCCCCNc3nc4cc(S(N)(=O)=O)ccc4o3)ccc12 [Compound 8j]

molecular target: human CA IX (Homo sapiens, UniProt Q16790); experiment: stopped-flow CO2 hydrase assay, CA IX; conditions: not given

Ki	Compound
0.0332 µM	Cc1cc(=O)oc2cc(OCCCCCNc3nc4cc(-c5ccccc5)ccc4o3)ccc12 [Compound 8i]
0.0907 µM	Cc1cc(=O)oc2cc(OCCCCCNc3nc4cc(S(N)(=O)=O)ccc4o3)ccc12 [Compound 8j]

same assay, conditions: ratio of Ki CA I / CA IX

Selectivity ratio I/IX	Compound
>301.2	Cc1cc(=O)oc2cc(OCCCCCNc3nc4cc(-c5ccccc5)ccc4o3)ccc12 [Compound 8i]
8.9	Cc1cc(=O)oc2cc(OCCCCCNc3nc4cc(S(N)(=O)=O)ccc4o3)ccc12 [Compound 8j]

same assay, conditions: ratio of Ki CA II / CA IX

Selectivity ratio II/IX	Compound
>301.2	Cc1cc(=O)oc2cc(OCCCCCNc3nc4cc(-c5ccccc5)ccc4o3)ccc12 [Compound 8i]
5.7	Cc1cc(=O)oc2cc(OCCCCCNc3nc4cc(S(N)(=O)=O)ccc4o3)ccc12 [Compound 8j]

molecular target: human CA IV (Homo sapiens, UniProt P22748); experiment: stopped-flow CO2 hydrase assay, CA IV; conditions: not given
Sequence (P22748 19-312): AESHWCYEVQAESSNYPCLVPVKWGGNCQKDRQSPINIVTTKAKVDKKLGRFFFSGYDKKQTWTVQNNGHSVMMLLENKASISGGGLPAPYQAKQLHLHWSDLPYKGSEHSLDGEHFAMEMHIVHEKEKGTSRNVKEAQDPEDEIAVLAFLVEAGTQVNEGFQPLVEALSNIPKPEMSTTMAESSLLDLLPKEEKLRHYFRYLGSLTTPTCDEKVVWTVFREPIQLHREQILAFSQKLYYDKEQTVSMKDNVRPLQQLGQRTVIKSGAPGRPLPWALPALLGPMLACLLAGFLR

Ki	Compound
6.27 µM	Cc1cc(=O)oc2cc(OCCCCCNc3nc4cc(-c5ccccc5)ccc4o3)ccc12 [Compound 8i]
3.47 µM	Cc1cc(=O)oc2cc(OCCCCCNc3nc4cc(S(N)(=O)=O)ccc4o3)ccc12 [Compound 8j]

test system: T-47D (breast); experiment: antiproliferative assay (NCI protocol), T-47D; format: cell-based, human; conditions: Homo sapiens, T47D; antiproliferative activity, multidrug-resistant line
Experimental: as §1, §2

Compound	GI50
Cc1cc(=O)oc2cc(OCCCCCNc3nc4cc(-c5ccccc5)ccc4o3)ccc12 [Compound 8i]	> 100 µM
Cc1cc(=O)oc2cc(OCCCCCNc3nc4cc(S(N)(=O)=O)ccc4o3)ccc12 [Compound 8j]	34 ± 8 µM

same assay, conditions: antiproliferative activity, multidrug-resistant line

Compound	GI50
[NH2][Pt]([NH2])([Cl])[Cl] [CDDP, cisplatin, reference compound]	17 ± 3 µM

test system: WiDr (colon); experiment: antiproliferative assay (NCI protocol), WiDr; format: cell-based, human; conditions: Homo sapiens, WiDr; antiproliferative activity, multidrug-resistant line
Experimental: as §1, §2

Compound	GI50
Cc1cc(=O)oc2cc(OCCCCCNc3nc4cc(-c5ccccc5)ccc4o3)ccc12 [Compound 8i]	78 ± 38 µM
Cc1cc(=O)oc2cc(OCCCCCNc3nc4cc(S(N)(=O)=O)ccc4o3)ccc12 [Compound 8j]	29 ± 9 µM

same assay, conditions: antiproliferative activity, multidrug-resistant line

Compound	GI50
[NH2][Pt]([NH2])([Cl])[Cl] [CDDP, cisplatin, reference compound]	26 ± 4 µM

molecular target: T1, human CA I; experiment: not given; parameters: made in house; method as in PMID 22077347; conditions: read-out: inhibition of hCAI; cited from earlier work

Compound	Ki
Cc1cc(=O)oc2cc(O)ccc12 [Compound 3a, 4-methylumbelliferone]	> 100 µM

molecular target: human CA VII (Homo sapiens, UniProt P43166); experiment: stopped-flow CO2 hydrase assay, CA VII; conditions: not given
Sequence (P43166 whole entry): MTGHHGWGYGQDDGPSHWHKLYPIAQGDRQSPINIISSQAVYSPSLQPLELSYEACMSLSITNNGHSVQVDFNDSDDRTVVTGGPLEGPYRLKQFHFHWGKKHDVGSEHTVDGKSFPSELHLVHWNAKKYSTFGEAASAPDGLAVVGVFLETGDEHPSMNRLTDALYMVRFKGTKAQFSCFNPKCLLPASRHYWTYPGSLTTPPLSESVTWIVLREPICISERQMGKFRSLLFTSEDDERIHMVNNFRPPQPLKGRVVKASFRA

Ki	Compound
> 10 µM	Cc1cc(=O)oc2cc(OCCCCCNc3nc4cc(-c5ccccc5)ccc4o3)ccc12 [Compound 8i]
0.381 µM	Cc1cc(=O)oc2cc(OCCCCCNc3nc4cc(S(N)(=O)=O)ccc4o3)ccc12 [Compound 8j]

test system: HeLa (cervix); experiment: antiproliferative assay (NCI protocol), HeLa; format: cell-based, human; conditions: Homo sapiens, HeLa; antiproliferative activity
Experimental: as §1, §2

Compound	GI50
Cc1cc(=O)oc2cc(OCCCCCNc3nc4cc(-c5ccccc5)ccc4o3)ccc12 [Compound 8i]	28 ± 13 µM
Cc1cc(=O)oc2cc(OCCCCCNc3nc4cc(S(N)(=O)=O)ccc4o3)ccc12 [Compound 8j]	21 ± 7 µM

same assay, conditions: antiproliferative activity

Compound	GI50
[NH2][Pt]([NH2])([Cl])[Cl] [CDDP, cisplatin, reference compound]	1.8 ± 0.5 µM

test system: HBL-100 (breast); experiment: antiproliferative assay (NCI protocol), HBL-100; format: cell-based, human; conditions: Homo sapiens, HBL-100; antiproliferative activity
Experimental: as §1, §2

Compound	GI50
Cc1cc(=O)oc2cc(OCCCCCNc3nc4cc(-c5ccccc5)ccc4o3)ccc12 [Compound 8i]	30 ± 9 µM
Cc1cc(=O)oc2cc(OCCCCCNc3nc4cc(S(N)(=O)=O)ccc4o3)ccc12 [Compound 8j]	27 ± 8 µM

same assay, conditions: antiproliferative activity

Compound	GI50
[NH2][Pt]([NH2])([Cl])[Cl] [CDDP, cisplatin, reference compound]	1.9 ± 0.2 µM
